Tested on: male spontaneously hypertensive rats
Assay: Decrease in systolic blood pressure in spontaneously hypertensive rats after intravenous bolus injection, indirect (tail-cuff) method
Format: in vivo, rat
Conditions: for Decrease in systolic blood pressure (mmHg) time after administration (hour) 0.5: 0.5 hour after administration; for Decrease in systolic blood pressure (mmHg) time after administration (hour) 4: 4 hours after administration
Procedure: As test animals, four male spontaneously hypertensive rats (weight 400 to 440 g) that were sufficiently adapted for feeding and in which hypertension was confirmed were used.
Physiological saline aqueous solution containing 2.5% Nicolle and 2.5% ethanol of sample was intravenously administered by bolus injection at a dose of 1 ml per 1 kg of body weight. Systolic blood pressure after administration was measured by the indirect (tail-cuff) method.

[1] = dose 10 mg/kg i.v. bolus, hydrochloride, 10 mg/kg

Row | Compound | Decrease in systolic blood pressure (mmHg) time after administration (hour) 0.5 (dose 10 mg/kg i.v. bolus) [mmHg] | Decrease in systolic blood pressure (mmHg) time after administration (hour) 4 (dose 10 mg/kg i.v. bolus) [mmHg] | also measured
1 | Cl.N#Cc1ccc(C=CCN2CCC(=C3c4ccccc4C=Cc4ccccc43)CC2)cc1 [Example 346, 1-(4-Cyanocinnamyl)-4-(5H-Dibenzo[a,d]cyclohepten-5-ylidene)-1-piperidine hydrochloride] | – | – | Decrease in systolic blood pressure (mmHg) time after administration (hour) 0.5 (dose 3 mg/kg i.v. bolus): −142 mmHg; Decrease in systolic blood pressure (mmHg) time after administration (hour) 4 (dose 3 mg/kg i.v. bolus): −121 mmHg
2 | C1=Cc2ccccc2C(=C2CCN(CC3CCCCC3)CC2)c2ccccc21.Cl [Example 7, 1-Cyclohexylmethyl-4-(5H-dibenzo[a,d]cyclohepten-5-ylidene)piperidine hydrochloride] | −57 | −15 | –
3 | CCCCCCCCCCCCN1CCC(=C2c3ccccc3C=Cc3ccccc32)CC1.Cl [Example 4, 4-(5H-Dibenzo[a,d]cyclohepten-5-ylidene)-1-dodecylpiperidine hydrochloride] | −76 | 0 | –
4 | C1=Cc2ccccc2C(=C2CCN(CCCCCCCCC3CCCCC3)CC2)c2ccccc21.Cl [Example 156, 1-Cyclohexyl-8-(4-(5H-dibenzo[a,d]cyclohepten-5-ylidene)-1-piperidinyl)octane hydrochloride] | −110 | −42 | –
5 | C1=Cc2ccccc2C(=C2CCN(CCCC3CCCNC3)CC2)c2ccccc21.Cl.Cl (stereo not shown) [Example 281, 3-(4-(5H-Dibenzo[a,d]cyclohepten-5-ylidene)-1-piperidinyl)-1-(3-piperidinyl)propane dihydrochloride] | −31 | −5 | –
6 | Cl.O=C1Cc2ccccc2C(=C2CCN(CCCCC3CCCCC3)CC2)c2ccsc21 [Example 180] | −25 | −24 | –
7 | 5-(4-(5H-Dibenzo[a,d]cyclohepten-5-ylidene)-1-piperidinyl)-2-phenylvaleronitrile hydrochloride [Example 121] | −42 | −19 | –
8 | Cl.O=C(CCCN1CCC(=C2c3ccccc3C=Cc3ccccc32)CC1)N1CCC(O)CC1 [Example 216, 1-(4-(4-(5H-Dibenzo[a,d]cyclohepten-5-ylidene)-1-piperidinyl)butanoyl)-4-hydroxypiperidine hydrochloride] | – | – | Decrease in systolic blood pressure (mmHg) time after administration (hour) 0.5 (dose 3 mg/kg i.v. bolus): −2 mmHg; Decrease in systolic blood pressure (mmHg) time after administration (hour) 4 (dose 3 mg/kg i.v. bolus): −27 mmHg
9 | C1=Cc2ccccc2C(=C2CCN(CCCCC3CCOCC3)CC2)c2ccccc21.Cl [Example 305, 4-(4-(4-(5H-Dibenzo[a,d]cyclohepten-5-ylidene)-1-piperidinyl)-1-butyl)tetrahydropyran hydrochloride] | −95 | −9 | –
10 | Cl.O=C(CCCN1CCC(=C2c3ccccc3C=Cc3ccccc32)CC1)c1cccs1 [Example 234, 4-(4-(5H-Dibenzo[a,d]cyclohepten-5-ylidene)-1-piperidinyl)-1-(2-thienyl)-1-butanone hydrochloride] | −96 | −2 | –
11 | COC(=O)C1(CCCCCN2CCC(=C3c4ccccc4C=Cc4ccccc43)CC2)CCCCC1.Cl [Example 313, 1-(5-(4-(5H-Dibenzo[a,d]cyclohepten-5-ylidene)-1-piperidinyl)-1-pentyl)-1-methoxycarbonylcyclohexane hydrochloride] | −154 | −85 | –
12 | Cl.O=C1CCCCC1CCCCN1CCC(=C2c3ccccc3C=Cc3ccccc32)CC1 (stereo not shown) [Example 215, 2-(4-(4-(5H-Dibenzo[a,d]cyclohepten-5-ylidene)-1-piperidinyl)butyl)cyclohexanone hydrochloride] | −128 | −14 | –
13 | CCOc1ccc(C(=O)CCCN2CCC(=C3c4ccccc4C=Cc4ccccc43)CC2)cc1OCC.Cl [Example 194, 4-(4-(5H-Dibenzo[a,d]cyclohepten-5-ylidene)-1-piperidinyl)-3′,4′-diethoxybutyrophenone hydrochloride] | −59 | −17 | –
14 | COc1cc(CN2CCC(=C3c4ccccc4C=Cc4ccccc43)CC2)cc(OC)c1OC [Example 188, 4-(5H-Dibenzo[a,d]cyclohepten-5-ylidene)-1-(3,4,5-trimethoxybenzyl)piperidine] | −94 | −12 | –
15 | Cl.Cl.Nc1ccccc1CCCN1CCC(=C2c3ccccc3C=Cc3ccccc32)CC1 [Example 251, 1-(2-Aminophenyl)-3-(4-(5H-Dibenzo[a,d]cyclohepten-5-ylidene)-1-piperidinyl)propane dihydrochloride] | −110 | −24 | –
16 | C1=Cc2ccccc2C(=C2CCN(CCCCc3ccccc3)CC2)c2ccccc21.Cl [Example 15, 4-(4-(5H-Dibenzo[a,d]cyclohepten-5-ylidene)-1-piperidinyl)-1-phenylbutane hydrochloride] | −130 | −136 | –
17 | 4-(5H-Dibenzo[a,d]cyclohepten-5-ylidene)-1-(4-N-imidazolylmethyl)cinnamyl)piperidine dihydroxybutane hydrochloride [Example 210] | – | – | Decrease in systolic blood pressure (mmHg) time after administration (hour) 0.5 (dose 1 mg/kg i.v. bolus): −78 mmHg; Decrease in systolic blood pressure (mmHg) time after administration (hour) 4 (dose 1 mg/kg i.v. bolus): −69 mmHg
18 | CCCCCCCCCCCCCCN1CCC(=C2c3ccccc3C=Cc3ccccc32)CC1.Cl [Example 5, 4-(5H-Dibenzo[a,d]cyclohepten-5-ylidene)-1-tetradecylpiperidine hydrochloride] | −56 | −20 | –
19 | CCCCCCCCCCN1CCC(=C2c3ccccc3C=Cc3ccccc32)CC1.Cl [Example 3, 1-Decyl-4-(5H-dibenzo[a,d]cyclohepten-5-ylidene)piperidine hydrochloride] | – | – | Decrease in systolic blood pressure (mmHg) time after administration (hour) 0.5 (dose 3 mg/kg i.v. bolus): −110 mmHg; Decrease in systolic blood pressure (mmHg) time after administration (hour) 4 (dose 3 mg/kg i.v. bolus): −22 mmHg
20 | COC1=C(OC)CC2=CC=CC(CN3CCC(=C4c5ccccc5C=Cc5ccccc54)CC3)=CC2=C1.Cl [Example 319, 6-(4-(5H-Dibenzo[a,d]cyclohepten-5-ylidene)-1-piperidinyl)methyl-2,3-dimethoxybenzocycloheptene hydrochloride] | −104 | −20 | –
21 | CCCC(CCN1CCC(=C2c3ccccc3C=Cc3ccccc32)CC1)C(=O)c1ccc(OC)c(OC)c1.Cl (stereo not shown) [Example 277, 4-(4-(5H-dibenzo[a,d]cyclohepten-5-ylidene)-1-piperidinyl)-2-(1-propyl)-3′,4′-dimethoxybutyrophenone hydrochloride] | −27 | 0 | –
22 | CCCCCCC(C#N)(CCCN1CCC(=C2c3ccccc3C=Cc3ccccc32)CC1)c1cccc(C(F)(F)F)c1.Cl (stereo not shown) [Example 151, 5-(4-(5H-Dibenzo[ac]cyclohepten-5-ylidene)-1-piperidinyl)-2-hexyl-2-(3-trifluoromethylphenyl)valeronitrile hydrochloride] | −81 | −43 | –
23 | Cl.OC(CCCN1CCC(=C2c3ccccc3C=Cc3ccccc32)CC1)c1ccc(F)cc1 (stereo not shown) [Example 108, 4-(4-(5H-Dibenzo[a,d]cyclohepten-5-ylidene)-1-piperidinyl)-1-hydroxy-1-(4-fluorophenyl)butane hydrochloride] | −126 | −50 | –
24 | Cl.O=C(CCCN1CCC(=C2c3ccccc3C=Cc3ccccc32)CC1)N1CCc2ccccc2C1 [Example 204, N-(4-(4-(5H-Dibenzo[a,d]cyclohepten-5-ylidene)-1-piperidinyl)butanoyl)-1,2,3,4-tetrahydroisoquinoline hydrochloride] | −141 | −84 | –
25 | C1=Cc2ccccc2C(=C2CCN(CCCCC3CCCCC3)CC2)c2ccccc21.Cl [Example 10, 1-Cyclohexyl-4-(4-(5H-dibenzo[a,d]cyclohepten-5-ylidene)-1-piperidinyl)butane hydrochloride] | – | – | Decrease in systolic blood pressure (mmHg) time after administration (hour) 0.5 [1]: −129 mmHg; Decrease in systolic blood pressure (mmHg) time after administration (hour) 4 [1]: −21 mmHg
26 | Cl.O=C(CCCN1CCC(=C2c3ccccc3C=Cc3ccccc32)CC1)c1ccc(F)cc1 [Example 125, 4-(4-(5H-Dibenzo[a,d]cyclohepten-5-ylidene)-1-piperidinyl)-4′-fluorobutyrophenone hydrochloride] | −93 | −14 | –

— USRE38257E1, “Piperdine derivatives and hypotensives containing the same” (Ajinomoto Co., Inc., priority 1988, dated 2003)
